# Source: paper PMC6630832, “3-Vinylazetidin-2-Ones: Synthesis, Antiproliferative and Tubulin Destabilizing Activity in MCF-7 and MDA-MB-231 Breast Cancer Cells” (Pharmaceuticals, 2019)
# Columns and labels:
# [1] = system: human MCF-7 breast cancer cells; assay: Cell viability (Alamar Blue) antiproliferative assay in MCF-7 cells; type: cell-based; conditions: Homo sapiens, MCF7, 72 h, human MCF-7 breast cancer cells; 72 h; mean ± SEM; read-out: Antiproliferative Activity IC50
# Experimental: The human breast carcinoma cell line MCF-7, was purchased from the European Collection of Animal Cell Cultures (ECACC) and was cultured in Eagle’s minimum essential medium with 10% fetal bovine serum, 2 mM L-glutamine and 100 μg/mL penicillin/streptomycin. The medium was supplemented with 1% non-essential amino acids. The human breast carcinoma cell line MDA-MB-231 was purchased from the European Collection of Animal Cell Cultures (ECACC). MDA-MB-231 cells were maintained in Dulbecco’s modified Eagle’s medium (DMEM) supplemeted with 10% (v/v) fetal bovine serum, 2 mM L-glutamine and 100 μg/mL penicillin/streptomycin (complete medium). All media contained 100 U/mL penicillin and 100 μg/mL streptomycin. Triple negative breast cancer Hs578T cells and its invasive variant Hs578Ts(i)8 were obtained as a kind gift from Dr. Susan McDonnell, School of Chemical and Bioprocess Engineering, University College Dublin and were cultured in Dulbecco’s Modified Eagle’s Media (DMEM) with GlutaMAX^TM-I, with the same supplement as for MDA-MB-231 cells in the absence of non-essential amino acids. HEK-293T normal epithelial embryonic kidney cells were cultured in Dulbecco’s Modified Eagle’s Medium (DMEM) with GlutaMAX^TM-I in the absence of non-essential amino acids. K562 and HL-60 cells were originally obtained from the European Collection of Cell Cultures (Salisbury, UK).The K562 cells were derived from a patient in the blast crisis stage of CML HL-60 cells were derive from a patient with acute myeloid leukaemia. Cells were cultured in RPMI-1640 Glutamax medium supplemented with 10% FCS media, and 100 μg/mL penicillin/streptomycin. Cells were maintained at 37 °C in 5% CO2 in a humidified incubator. All cells were sub-cultured three times/week (adherent cells by trypsinisation).
# Cells were seeded at a density of 5 × 10^3 cells/well (MCF-7), in triplicate in 96-well plates. After 24 h, cells were then treated with either medium alone, vehicle [1% ethanol (v/v)] or with serial dilutions of CA-4 or β-lactam analogue. Cell viability for MCF-7 and MDA-MB-231 was analysed using the Alamar Blue assay (Invitrogen Corp, Thermo Fisher Scientific, 168 Third Avenue, Waltham, MA, USA) according to the manufacturer’s instructions. After 72 h, Alamar Blue [10% (v/v)] was added to each well and plates were incubated for 3–5 h at 37 °C in the dark. Fluorescence was read using a 96-well fluorimeter with excitation at 530 nm and emission at 590 nm. Results were expressed as percentage viability relative to vehicle control (100%). Dose response curves were plotted and IC50 values (concentration of drug resulting in 50% reduction in cell survival) were obtained using the commercial software package Prism (GraphPad Software, Inc., 2365 Northside, Suite 560, San Diego, CA, USA). Experiments were performed in triplicate on at least three separate occasions.
Structure (SMILES),melting point,IC50 [1]
"C=CC1C(=O)N(c2cc(OC)c(OC)c(OC)c2)C1c1ccc(F)cc1 (stereo not shown) [Compound 7a, 4-(4-Fluorophenyl)-1-(3,4,5-trimethoxyphenyl)-3-vinylazetidin-2-one]",147 to 149 °C,8.31 ± 1.4 µM
"C=CC1C(=O)N(c2cc(OC)c(OC)c(OC)c2)C1c1ccc(Br)cc1 (stereo not shown) [Compound 7c, 4-(4-Bromophenyl)-1-(3,4,5-trimethoxyphenyl)-3-vinylazetidin-2-one]",,0.445 ± 0.07 µM
"C=CC1C(=O)N(c2cc(OC)c(OC)c(OC)c2)C1c1ccc(N(C)C)cc1 (stereo not shown) [Compound 7e, 4-(4-Dimethylaminophenyl)-1-(3,4,5-trimethoxyphenyl)-3-vinylazetidin-2-one]",,4.05 ± 0.45 µM
"C=CC1C(=O)N(c2cc(OC)c(OC)c(OC)c2)C1c1ccccc1 (stereo not shown) [Compound 7f, 4-Phenyl-1-(3,4,5-trimethoxyphenyl)-3-vinylazetidin-2-one]",109 to 111 °C,4.03 ± 0.42 µM
"C=CC1C(=O)N(c2cc(OC)c(OC)c(OC)c2)C1c1ccc(C)cc1 (stereo not shown) [Compound 7g, 4-p-Tolyl-1-(3,4,5-trimethoxyphenyl)-3-vinylazetidin-2-one]",106 to 107 °C,0.355 ± 0.03 µM
"C=CC1C(=O)N(c2cc(OC)c(OC)c(OC)c2)C1c1ccc(OCCCC)cc1 (stereo not shown) [Compound 7j, 4-(4-Butoxyphenyl)-1-(3,4,5-trimethoxyphenyl)-3-vinylazetidin-2-one]",100 to 102 °C,14 ± 1.81 µM
"C=CC1C(=O)N(c2cc(OC)c(OC)c(OC)c2)C1c1ccc(Oc2ccccc2)cc1 (stereo not shown) [Compound 7k, 4-(4-Phenoxyphenyl)-1-(3,4,5-trimethoxyphenyl)-3-vinylazetidin-2-one]",128 to 130 °C,57 ± 3.72 µM
"C=CC1C(=O)N(c2cc(OC)c(OC)c(OC)c2)C1c1ccc(OCc2ccccc2)cc1 (stereo not shown) [Compound 7l, 4-(4-Benzyloxyphenyl)-1-(3,4,5-trimethoxyphenyl)-3-vinylazetidin-2-one]",148 to 149 °C,8.02 ± 0.63 µM
"C=CC1C(=O)N(c2cc(OC)c(OC)c(OC)c2)C1c1cccc2ccccc12 (stereo not shown) [Compound 7m, 4-Naphthalen-1-yl-1-(3,4,5-trimethoxyphenyl)-3-vinylazetidin-2-one]",121 to 122 °C,1.74 ± 0.17 µM
"C=CC1C(=O)N(c2cc(OC)c(OC)c(OC)c2)C1c1ccc(OC)c([N+](=O)[O-])c1 (stereo not shown) [Compound 7p, 4-(4-Methoxy-3-nitrophenyl)-1-(3,4,5-trimethoxyphenyl)-3-vinylazetidin-2-one]",,0.618 ± 0.1 µM
"C=CC1C(=O)N(c2ccc(F)cc2)C1c1cc(OC)c(OC)c(OC)c1 (stereo not shown) [Compound 8a, 4-(3,4,5-Trimethoxyphenyl)-1-(4-fluorophenyl)-3-vinylazetidin-2-one]",,1.07 ± 0.14 µM
"C=CC1C(=O)N(c2ccc(Cl)cc2)C1c1cc(OC)c(OC)c(OC)c1 (stereo not shown) [Compound 8b, 4-(3,4,5-Trimethoxyphenyl)-1-(4-chlorophenyl)-3-vinylazetidin-2-one]",131 to 133 °C,29.2 ± 1.14 µM
"C=CC1C(=O)N(c2ccc(Br)cc2)C1c1cc(OC)c(OC)c(OC)c1 (stereo not shown) [Compound 8c, 4-(3,4,5-Trimethoxyphenyl)-1-(4-bromophenyl)-3-vinylazetidin-2-one]",120 to 122 °C,10.4 ± 0.87 µM
"C=CC1C(=O)N(c2ccc([N+](=O)[O-])cc2)C1c1cc(OC)c(OC)c(OC)c1 (stereo not shown) [Compound 8d, 4-(3,4,5-Trimethoxyphenyl)-1-(4-nitrophenyl)-3-vinylazetidin-2-one]",,59.1 ± 4.16 µM
"C=CC1C(=O)N(c2ccc(C(C)(C)C)cc2)C1c1cc(OC)c(OC)c(OC)c1 (stereo not shown) [Compound 8e, 4-(3,4,5-Trimethoxyphenyl)-1-(4-tert-butylphenyl)-3-vinylazetidin-2-one]",172 to 174 °C,68.8 ± 3.63 µM
"C=CC1C(=O)N(c2ccccc2)C1c1cc(OC)c(OC)c(OC)c1 (stereo not shown) [Compound 8f, 4-(3,4,5-Trimethoxyphenyl)-1-phenyl-3-vinylazetidin-2-one]",150 to 151 °C,50.5 ± 4.25 µM
"C=CC1C(=O)N(c2ccc(C)cc2)C1c1cc(OC)c(OC)c(OC)c1 (stereo not shown) [Compound 8g, 4-(3,4,5-Trimethoxyphenyl)-1-p-tolyl-3-vinylazetidin-2-one]",,43.1 ± 2.16 µM
"C=CC1C(=O)N(c2ccc(CC)cc2)C1c1cc(OC)c(OC)c(OC)c1 (stereo not shown) [Compound 8h, 4-(3,4,5-Trimethoxyphenyl)-1-(4-ethylphenyl)-3-vinylazetidin-2-one]",110 to 112 °C,36.4 ± 2.13 µM
"C=CC1C(=O)N(c2ccc(OC)cc2)C1c1cc(OC)c(OC)c(OC)c1 (stereo not shown) [Compound 8i, 4-(3,4,5-Trimethoxyphenyl)-1-(4-methoxyphenyl)-3-vinylazetidin-2-one]",,65.1 ± 5.55 µM
"C=CC1C(=O)N(c2ccc(NC(C)=O)cc2)C1c1cc(OC)c(OC)c(OC)c1 (stereo not shown) [Compound 8j, N-(4-(2-(3,4,5-Trimethoxyphenyl)-4-oxo-3-vinylazetidin-1-yl)phenyl)acetamide]",223 to 224 °C,4.02 ± 0.64 µM
"C=CC1C(=O)N(c2ccc(SC)cc2)C1c1cc(OC)c(OC)c(OC)c1 (stereo not shown) [Compound 8k, 1-(4-(Methylthio)phenyl)-4-(3,4,5-trimethoxyphenyl)-3-vinylazetidin-2-one]",104 to 106 °C,> 50 µM
"COc1ccc(C2CC(=O)N2c2cc(OC)c(OC)c(OC)c2)cc1O (stereo not shown) [Compound 9c, 4-(3-Hydroxy-4-methoxyphenyl)-1-(3,4,5-trimethoxyphenyl)-azetidin-2-one]",78 to 80 °C,0.017 µM
"COc1ccc(C2C(C(C)O)C(=O)N2c2cc(OC)c(OC)c(OC)c2)cc1O (stereo not shown) [Compound 10a, 3-(1-Hydroxyethyl)-4-(3-hydroxy-4-methoxyphenyl)-1-(3,4,5-trimethoxyphenyl) azetidin-2-one]",,0.065 ± 0.015 µM
"C/C=C/C(O)C1C(=O)N(c2cc(OC)c(OC)c(OC)c2)C1c1ccc(OC)cc1 (stereo not shown) [Compound 10b, 3-((E)-1-Hydroxybut-2-enyl)-1-(3,4,5-trimethoxyphenyl)-4-(4-methoxyphenyl) azetidin-2-one]",143 to 144 °C,0.292 ± 0.05 µM
"COc1ccc(C2C(C(O)/C=C/c3ccccc3)C(=O)N2c2cc(OC)c(OC)c(OC)c2)cc1 (stereo not shown) [Compound 10e, 3-((E)-1-Hydroxy-3-phenylallyl)-1-(3,4,5-trimethoxyphenyl)-4-(4-methoxyphenyl) azetidin-2-one]",,0.537 ± 0.08 µM
"C=CC(O)C1C(=O)N(c2cc(OC)c(OC)c(OC)c2)C1c1ccc(OC)c(O)c1 (stereo not shown) [Compound 10g, 4-(3-Hydroxy-4-methoxyphenyl)-3-(1-hydroxyallyl)-1-(3,4,5-trimethoxyphenyl) azetidin-2-one]",,0.288 ± 0.076 µM
"C=CC(C)(O)C1C(=O)N(c2cc(OC)c(OC)c(OC)c2)C1c1ccc(OC)c(O)c1 (stereo not shown) [Compound 10h, 4-(3-Hydroxy-4-methoxy-phenyl)-3-(1-hydroxy-1-methylallyl)-1-(3,4,5-trimethoxy-phenyl)-azetidin-2-one]",,0.467 ± 0.000253 µM
"COc1ccc(C2C(C(C)=O)C(=O)N2c2cc(OC)c(OC)c(OC)c2)cc1O (stereo not shown) [Compound 11, 3-Acetyl-4-(3-hydroxy-4-methoxyphenyl)-1-(3,4,5-trimethoxyphenyl)azetidin-2-one]",,0.414 ± 0.132 µM
"COc1ccc(C2C(C(O)CO)C(=O)N2c2cc(OC)c(OC)c(OC)c2)cc1O (stereo not shown) [Compound 13, 3-(1,2-Dihydroxyethyl)-4-(3-hydroxy-4-methoxyphenyl)-1-(3,4,5-trimethoxyphenyl) azetidin-2-one]",,0.069 ± 0.029 µM
"C=CC1C(=O)N(c2cc(OC)c(OC)c(OC)c2)C1c1ccc(OC)c(NC(=O)C(C)N)c1 (stereo not shown) [Compound 15, 2-Amino-N-(2-methoxy-5-(1-(3,4,5-trimethoxyphenyl)-4-oxo-3-vinylazetidin-2-yl)phenyl)propanamide]",,3.25 ± 0.27 µM
